Test results: ChEMBL document CHEMBL5346900, “Treatment of allergy: Overview of synthetic anti-allergy small molecules in medicinal chemistry” (Eur J Med Chem, 2023)

Molecular target: T1, Cysteinyl leukotriene receptor 1 (Cavia porcellus, UniProt Q2NNR5)
T1 sequence (Q2NNR5 whole entry): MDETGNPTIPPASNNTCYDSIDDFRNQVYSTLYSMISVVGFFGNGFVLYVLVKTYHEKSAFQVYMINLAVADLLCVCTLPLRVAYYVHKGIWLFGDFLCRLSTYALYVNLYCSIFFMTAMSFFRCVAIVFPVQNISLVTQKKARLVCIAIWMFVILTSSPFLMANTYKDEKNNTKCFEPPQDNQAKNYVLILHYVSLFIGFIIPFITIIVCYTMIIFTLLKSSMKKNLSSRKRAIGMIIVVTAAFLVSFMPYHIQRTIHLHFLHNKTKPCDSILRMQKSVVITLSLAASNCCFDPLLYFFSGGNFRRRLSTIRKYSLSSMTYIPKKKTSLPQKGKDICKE
Experiment: Inhibition of guinea pig leukotriene D4
Settings: not given

IC50 | SMILES
300 nM | COC1(c2cc(F)cc(OCc3ccc4c(ccc(=O)n4C)c3)c2)CCOCC1 [ZD-2138]
229 nM | Cn1nccc1-c1ccc(Sc2ccc(C3(C(N)=O)CCOCC3)cc2)cc1

Test system: not listed separately
Experiment: Half life in Sprague-Dawley rat at 3 mg/kg, iv measured by LC/MS analysis
Format: ADME, organism-based
Settings: in vivo

half-life | SMILES
48 min | CN1CCN(C(=O)c2cc3cc(Cl)ccc3[nH]2)CC1 [JNJ-7777120]

Molecular target: Histamine H4 receptor (Homo sapiens, UniProt Q9H3N8)
Experiment: Binding affinity to histamine H4 receptor (unknown origin) assessed as inhibition constant
Settings: not given

Ki | SMILES
4.8 nM | CN1CCN(c2cc(-c3ccc(Cl)cc3)nc(N)n2)CC1
4.9 nM | O=C(c1cc2ccccc2[nH]1)N1CCNCC1
8.4 nM | Cc1cc(C)c2nc(-c3cnc(NCCCC4CCN(C)CC4)nc3C)[nH]c2c1 [TOREFORANT]
27 nM | CN1CCN(C(=O)c2nc3cc(Cl)ccc3[nH]2)CC1

Molecular target: T2, Leukotriene C4 synthase (Homo sapiens, UniProt Q16873)
T2 sequence (Q16873 whole entry): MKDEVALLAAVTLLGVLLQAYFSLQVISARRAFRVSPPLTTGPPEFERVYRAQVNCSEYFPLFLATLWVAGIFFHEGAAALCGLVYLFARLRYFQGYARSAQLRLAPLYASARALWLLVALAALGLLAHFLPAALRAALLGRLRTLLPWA
Experiment: Inhibition of LTC4 (unknown origin)
Settings: not given

IC50 | SMILES
5 nM | Cc1ccc(NC(=S)NC(C)c2cccc3ccccc23)nc1 (configuration not stated)
5000 nM | S=C(NCCc1c[nH]c2ccccc12)Nc1ccc(Cl)cn1
5000 nM | Oc1ccc(CCNC(=S)Nc2ccc(Br)cn2)cc1
1600 nM | Cc1cccc(NC(=S)NC(C)c2cccc3ccccc23)n1 (configuration not stated)
2 nM | CCOC(=O)Cc1csc(NC(=S)NC(C)c2cccc3ccccc23)n1 (configuration not stated)
